Measured values taken from patent publication US20110039762A1, “TARGETED ANTIMICROBIAL MOIETIES” (C3 JIAN, INC., priority 2009, published 2011).

Columns and labels:
[1] = tested on: B. subtilis; assay: MIC (broth microdilution); type: cell-based, Bacillus subtilis
Method in brief: (§1)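 MIC determined per NCCLS standard microdilution, with peptide 2-fold dilution series against ˜1×10^5 cfu/mL cells in Mueller-Hinton medium, incubated 18-24 h at 37° C.; ten independent experiments.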

[2] = tested on: S. pneumoniae; assay: Kill or inhibit growth/proliferation; morphology, biofilm and growth disruption (Tables 5, 6); type: cell-based, Streptococcus pneumoniae; set-up: key: A: Peptide aggregates; B: Less hyphal formation; Clumps; Diffuse clumps and small polyps; F: Diffuse growth; H: Thin; I: Growth inhibition; Microcolony formation; Rippled; Small polyps; Thick; W: Halo formation on top, microlonies on bottom; further: test concentration or dose not given here
[3] = tested on: MRSA; assay: MIC (broth microdilution); type: cell-based, Methicillin-resistant Staphylococcus aureus
Method in brief: as §1

[4] = tested on: MRSA; assay: Kill or inhibit growth/proliferation; morphology, biofilm and growth disruption (Tables 5, 6); type: cell-based, Methicillin-resistant Staphylococcus aureus; set-up: key: A: Peptide aggregates; B: Less hyphal formation; Clumps; Diffuse clumps and small polyps; F: Diffuse growth; H: Thin; I: Growth inhibition; Microcolony formation; Rippled; Small polyps; Thick; W: Halo formation on top, microlonies on bottom; further: test concentration or dose not given here
[5] = tested on: C. jeikeium; assay: as above; type: cell-based, Corynebacterium jeikeium; set-up: key: A: Peptide aggregates; B: Less hyphal formation; Clumps; Diffuse clumps and small polyps; F: Diffuse growth; H: Thin; I: Growth inhibition; Microcolony formation; Rippled; Small polyps; Thick; W: Halo formation on top, microlonies on bottom; further: test concentration or dose not given here
[6] = tested on: S. epidermidis; assay: as above; type: cell-based, Staphylococcus epidermidis; set-up: key: A: Peptide aggregates; B: Less hyphal formation; Clumps; Diffuse clumps and small polyps; F: Diffuse growth; H: Thin; I: Growth inhibition; Microcolony formation; Rippled; Small polyps; Thick; W: Halo formation on top, microlonies on bottom
[7] = tested on: T. rubrum; assay: MIC (broth microdilution); type: cell-based, Trichophyton rubrum
Method in brief: (§2)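 Ten repeat experiments used NCCLS dilution susceptibility testing: MH broth, ˜1×10^5 cfu/mL starting density, 2-fold peptide titration, 18-24 h incubation at 37° C.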

[8] = tested on: E. faecalis; assay: Kill or inhibit growth/proliferation; morphology, biofilm and growth disruption (Tables 5, 6); type: cell-based, Enterococcus faecalis; set-up: key: A: Peptide aggregates; B: Less hyphal formation; Clumps; Diffuse clumps and small polyps; F: Diffuse growth; H: Thin; I: Growth inhibition; Microcolony formation; Rippled; Small polyps; Thick; W: Halo formation on top, microlonies on bottom; further: test concentration or dose not given here
[9] = tested on: S. epidermidis; type: cell-based, Staphylococcus epidermidis; conditions: S. epidermidis; on Organism, effect (morphology, biofilm and growth disruption): test concentration or dose not given here
Method in brief: as §1

[10] = tested on: A. niger; assay: MIC (broth microdilution); type: cell-based, Aspergillus niger
Method in brief: as §2

[11] = tested on: C. albicans; assay: MIC (broth microdilution); type: cell-based, Candida albicans
Procedure: (§3) Typically, the in vitro antimicrobial activity of antimicrobial agents is tested using standard NCCLS bacterial inhibition assays, or MIC tests (see, National Committee on Clinical Laboratory Standards “Performance Standards for Antimicrobial Susceptibility Testing,” NCCLS Document M100-S5 Vol. 14, No. 16, December 1994; “Methods for dilution antimicrobial susceptibility test for bacteria that grow aerobically-Third Edition,” Approved Standard M7-A3, National Committee for Clinical Standards, Villanova, Pa.).
(§4) Briefly, ˜1×10^5 cfu/mL bacteria were diluted in TH (S. mutans), or Mueller-Hinton (MH) broth (all other organisms) and distributed to 96-well plates. Serially-diluted (2-fold) peptides were then added and the plates incubated at 37° C. for 18-24 h. […] All experiments were conducted 10 times.

[12] = tested on: microorganisms; assay: Peptides having multiple activities (targeting/binding, antimicrobial, growth or phenotype altering)
From the text: In certain embodiments, peptides described herein can have multiple activities. Thus for example, a peptide can have both binding/targeting activity and antimicrobial activity. Such peptides can be used, e.g., in a chimeric construct, for any or all of these properties. Thus, for example, a peptide designated “B” in Table 8 can be used as a targeting peptide. If it is also designated G or M it can also be used for antimicrobial activity.

[13] = tested on: C. albicans; assay: Kill or inhibit growth/proliferation; morphology, biofilm and growth disruption (Tables 5, 6); type: cell-based, Candida albicans; set-up: key: A: Peptide aggregates; B: Less hyphal formation; Clumps; Diffuse clumps and small polyps; F: Diffuse growth; H: Thin; I: Growth inhibition; Microcolony formation; Rippled; Small polyps; Thick; W: Halo formation on top, microlonies on bottom; further: test concentration or dose not given here
[14] = tested on: B. subtilis; assay: as above; type: cell-based, Bacillus subtilis; set-up: key: A: Peptide aggregates; B: Less hyphal formation; Clumps; Diffuse clumps and small polyps; F: Diffuse growth; H: Thin; I: Growth inhibition; Microcolony formation; Rippled; Small polyps; Thick; W: Halo formation on top, microlonies on bottom
[15] = tested on: E. faecalis; assay: MIC (broth microdilution); type: cell-based, Enterococcus faecalis
Procedure: as §3, §4
Wherever Organism, effect (morphology, biofilm and growth disruption) is given: test concentration or dose not given here.

Which MIC [1] does the source give for MRFGSLALVAYDSAIKHSWPRPSSVRRLRM [PF-672] here?
Its MIC is “B. subtilis, 0.78 μM”.

And the “Organism, effect (morphology, biofilm and growth disruption)” value [2]?
The value was “S. pneumoniae (I)”.

What about the MIC [3] of the same sequence?
Its MIC is “MRSA , 1.56 μM”.

And the “Organism, effect (morphology, biofilm and growth disruption)” value [4]?
The value was “MRSA (I)”.

What about the “Organism, effect (morphology, biofilm and growth disruption)” value [5] of the same sequence?
Its value is “C. jeikeium (R)”.

And the “Organism, effect (morphology, biofilm and growth disruption)” value [6]?
The value was “S. epidermidis (I)”.

What about the MIC [7] of the same sequence?
Its MIC is “T. rubrum, 0.78 μM”.

And the “Organism, effect (morphology, biofilm and growth disruption)” value [8]?
Its value is “E. faecalis (I)”.

What about the MIC [9] of the same sequence?
The MIC was “S. epidermidis, 0.39 μM”.

And the MIC [10]?
Its MIC is “A. niger, 3 μM”.

And the MIC [11]?
Its MIC is “C. albicans, 1.56 μM”.

What about the Activities [12] of the same sequence?
The Activities was “G B M”.

And the “Organism, effect (morphology, biofilm and growth disruption)” value [13]?
The value was “C. albicans (I)”.

What about the “Organism, effect (morphology, biofilm and growth disruption)” value [14] of the same sequence?
Its value is “B. subtilis (I)”.

And the MIC [15]?
The MIC was “E. faecalis, 3.13 μM”.
